# Values of other authors, collected in patent US20160089380A1, “PROGESTERONE IMPREGNATED VAGINAL RING/PESSARY” (YALE UNIVERSITY, priority 2014, published 2016).
# Experiments:
# [1] = test system: women
# [2] = test system: women; conditions: two studies
smiles,measurement,setting,value
CC(=O)[C@H]1CC[C@H]2[C@@H]3CCC4=CC(=O)CC[C@]4(C)[C@H]3CC[C@]12C [progesterone],risk of preterm birth <37 weeks (average RR),"[1]; 10 studies, 1750 women, 95% CI 0.42 to 0.74",0.55
same,risk of preterm birth <34 weeks (average RR),"[1]; five studies, 602 women, 95% CI 0.14 to 0.69",0.31
same,"increase in pregnancy prolongation, mean difference (MD)","[1]; one study, 148 women, 95% CI 2.15 to 6.79",4.47 weeks
same,risk of preterm birth <34 weeks (RR),"[2]; 438 women, 95% CI 0.45 to 0.90",0.64
same,risk of preterm birth at <28 weeks' gestation (RR),"[2]; 1115 women, 95% CI 0.37 to 0.93",0.59
